Data: ChEMBL document CHEMBL3871297, “Squarate-based carbocyclic nucleosides: Syntheses, computational analyses and anticancer/antiviral evaluation” (2017)

What was measured:
Format in all cases: functional
[1] = Cytotoxicity against human SK-MEL-28 cells assessed as cell growth at 10 uM after 2 days by SRB assay relative to control; conditions: SK-MEL-28, 48 h, read-out: Activity
[2] = Cytotoxicity against human SKOV3 cells assessed as cell growth at 10 uM after 2 days by SRB assay relative to control; conditions: SK-OV-3, 48 h, read-out: Activity
[3] = Cytotoxicity against human OVCAR8 cells assessed as cell growth at 10 uM after 2 days by SRB assay relative to control; conditions: OVCAR-8, 48 h, read-out: Activity
[4] = Cytotoxicity against human TK10 cells assessed as cell growth at 10 uM after 2 days by SRB assay relative to control; conditions: TK-10, 48 h, read-out: Activity
[5] = Cytotoxicity against human HT-29 cells assessed as cell growth at 10 uM after 2 days by SRB assay relative to control; conditions: HT-29, 48 h, read-out: Activity
[6] = Cytotoxicity against human SF268 cells assessed as cell growth at 10 uM after 2 days by SRB assay relative to control; conditions: SF-268, 48 h, read-out: Activity
[7] = Cytotoxicity against human MDA-MB-231 cells assessed as cell growth at 10 uM after 2 days by SRB assay relative to control; conditions: MDA-MB-231, 48 h, read-out: Activity
[8] = Cytotoxicity against human UO31 cells assessed as cell growth at 10 uM after 2 days by SRB assay relative to control; conditions: UO-31, 48 h, read-out: Activity
[9] = Cytotoxicity against human SF295 cells assessed as cell growth at 10 uM after 2 days by SRB assay relative to control; conditions: SF-295, 48 h, read-out: Activity
[10] = Cytotoxicity against human KM12 cells assessed as cell growth at 10 uM after 2 days by SRB assay relative to control; conditions: KM12, 48 h, read-out: Activity
[11] = Cytotoxicity against human K562 cells assessed as cell growth at 10 uM after 2 days by SRB assay relative to control; conditions: K562, 48 h, read-out: Activity
[12] = Cytotoxicity against human SN12C cells assessed as cell growth at 10 uM after 2 days by SRB assay relative to control; conditions: 48 h, read-out: Activity
[13] = Cytotoxicity against human NCI-H522 cells assessed as cell growth at 10 uM after 2 days by SRB assay relative to control; conditions: NCI-H522, 48 h, read-out: Activity
[14] = Cytotoxicity against human M14 cells assessed as cell growth at 10 uM after 2 days by SRB assay relative to control; conditions: M14, 48 h, read-out: Activity
[15] = Cytotoxicity against human HCT15 cells assessed as cell growth at 10 uM after 2 days by SRB assay relative to control; conditions: HCT-15, 48 h, read-out: Activity
[16] = Cytotoxicity against human NCI/ADR-RES cells assessed as cell growth at 10 uM after 2 days by SRB assay relative to control; conditions: 48 h, read-out: Activity
[17] = Cytotoxicity against human HCT116 cells assessed as cell growth at 10 uM after 2 days by SRB assay relative to control; conditions: HCT-116, 48 h, read-out: Activity
[18] = Cytotoxicity against human UACC257 cells assessed as cell growth at 10 uM after 2 days by SRB assay relative to control; conditions: UACC-257, 48 h, read-out: Activity
[19] = Cytotoxicity against human SNB75 cells assessed as cell growth at 10 uM after 2 days by SRB assay relative to control; conditions: SNB-75, 48 h, read-out: Activity
[20] = Cytotoxicity against human NCI-H322M cells assessed as cell growth at 10 uM after 2 days by SRB assay relative to control; conditions: 48 h, read-out: Activity
[21] = Cytotoxicity against human SW620 cells assessed as cell growth at 10 uM after 2 days by SRB assay relative to control; conditions: SW-620, 48 h, read-out: Activity
[22] = Cytotoxicity against human T47D cells assessed as cell growth at 10 uM after 2 days by SRB assay relative to control; conditions: 48 h, read-out: Activity
[23] = Cytotoxicity against human EKVX cells assessed as cell growth at 10 uM after 2 days by SRB assay relative to control; conditions: 48 h, read-out: Activity
[24] = Cytotoxicity against human HOP62 cells assessed as cell growth at 10 uM after 2 days by SRB assay relative to control; conditions: HOP-62, 48 h, read-out: Activity
[25] = Cytotoxicity against human NCI-H460 cells assessed as cell growth at 10 uM after 2 days by SRB assay relative to control; conditions: NCI-H460, 48 h, read-out: Activity
[26] = Cytotoxicity against human Hs 578T cells assessed as cell growth at 10 uM after 2 days by SRB assay relative to control; conditions: 48 h, read-out: Activity
[27] = Cytotoxicity against human PC3 cells assessed as cell growth at 10 uM after 2 days by SRB assay relative to control; conditions: PC-3, 48 h, read-out: Activity
[28] = Cytotoxicity against human A549 cells assessed as cell growth at 10 uM after 2 days by SRB assay relative to control; conditions: A549, 48 h, read-out: Activity
[29] = Cytotoxicity against human SNB19 cells assessed as cell growth at 10 uM after 2 days by SRB assay relative to control; conditions: SNB-19, 48 h, read-out: Activity
[30] = Cytotoxicity against human MCF7 cells assessed as cell growth at 10 uM after 2 days by SRB assay relative to control; conditions: MCF7, 48 h, read-out: Activity
[31] = Cytotoxicity against human OVCAR4 cells assessed as cell growth at 10 uM after 2 days by SRB assay relative to control; conditions: OVCAR-4, 48 h, read-out: Activity
[32] = Cytotoxicity against human ACHN cells assessed as cell growth at 10 uM after 2 days by SRB assay relative to control; conditions: 48 h, read-out: Activity
[33] = Cytotoxicity against human LOXIMVI cells assessed as cell growth at 10 uM after 2 days by SRB assay relative to control; conditions: LOX IMVI, 48 h, read-out: Activity
[34] = Cytotoxicity against human HCC2998 cells assessed as cell growth at 10 uM after 2 days by SRB assay relative to control; conditions: HCC 2998, 48 h, read-out: Activity
[35] = Cytotoxicity against human IGROV1 cells assessed as cell growth at 10 uM after 2 days by SRB assay relative to control; conditions: IGROV-1, 48 h, read-out: Activity
[36] = Cytotoxicity against human NCI-H23 cells assessed as cell growth at 10 uM after 2 days by SRB assay relative to control; conditions: NCI-H23, 48 h, read-out: Activity
[37] = Cytotoxicity against human U251 cells assessed as cell growth at 10 uM after 2 days by SRB assay relative to control; conditions: U-251, 48 h, read-out: Activity
[38] = Cytotoxicity against human OVCAR5 cells assessed as cell growth at 10 uM after 2 days by SRB assay relative to control; conditions: OVCAR-5, 48 h, read-out: Activity

COc1c(N[C@H]2C=C[C@@H](CO)C2)c(=O)c1=O
growth at 10 µM [1]: 125% | growth at 10 µM [2]: 110% | growth at 10 µM [3]: 94.6% | growth at 10 µM [4]: 105% | growth at 10 µM [5]: 113% | growth at 10 µM [6]: 112% | growth at 10 µM [7]: 110% | growth at 10 µM [8]: 88.3% | growth at 10 µM [9]: 118% | growth at 10 µM [10]: 87.7% | growth at 10 µM [11]: 111% | growth at 10 µM [12]: 112% | growth at 10 µM [13]: 86.5% | growth at 10 µM [14]: 97.1% | growth at 10 µM [15]: 111% | growth at 10 µM [16]: 107% | growth at 10 µM [17]: 95.7% | growth at 10 µM [18]: 89% | growth at 10 µM [19]: 107% | growth at 10 µM [20]: 108% | growth at 10 µM [21]: 105% | growth at 10 µM [22]: 106% | growth at 10 µM [23]: 125% | growth at 10 µM [24]: 96% | growth at 10 µM [25]: 105% | growth at 10 µM [26]: 114% | growth at 10 µM [27]: 101% | growth at 10 µM [28]: 97.8% | growth at 10 µM [29]: 106% | growth at 10 µM [30]: 94.2% | growth at 10 µM [31]: 109% | growth at 10 µM [32]: 104% | growth at 10 µM [33]: 97.8% | growth at 10 µM [34]: 107% | growth at 10 µM [35]: 93% | growth at 10 µM [36]: 108% | growth at 10 µM [37]: 103% | growth at 10 µM [38]: 100%

Nc1c(N[C@H]2C=C[C@@H](CO)C2)c(=O)c1=O
growth at 10 µM [1]: 128% | growth at 10 µM [2]: 112% | growth at 10 µM [3]: 92.8% | growth at 10 µM [4]: 115% | growth at 10 µM [5]: 110% | growth at 10 µM [6]: 165% | growth at 10 µM [7]: 113% | growth at 10 µM [8]: 84.6% | growth at 10 µM [9]: 128% | growth at 10 µM [10]: 122% | growth at 10 µM [11]: 99.6% | growth at 10 µM [12]: 105% | growth at 10 µM [13]: 90.1% | growth at 10 µM [14]: 101% | growth at 10 µM [15]: 103% | growth at 10 µM [16]: 108% | growth at 10 µM [17]: 108% | growth at 10 µM [18]: 97.7% | growth at 10 µM [19]: 111% | growth at 10 µM [20]: 106% | growth at 10 µM [21]: 105% | growth at 10 µM [22]: 105% | growth at 10 µM [23]: 121% | growth at 10 µM [24]: 96.4% | growth at 10 µM [25]: 104% | growth at 10 µM [26]: 129% | growth at 10 µM [27]: 103% | growth at 10 µM [28]: 97.9% | growth at 10 µM [29]: 110% | growth at 10 µM [30]: 101% | growth at 10 µM [31]: 111% | growth at 10 µM [32]: 103% | growth at 10 µM [33]: 96.4% | growth at 10 µM [34]: 107% | growth at 10 µM [35]: 96.2% | growth at 10 µM [36]: 111% | growth at 10 µM [37]: 103% | growth at 10 µM [38]: 106%

O=c1c(O)c(N[C@H]2C=C[C@@H](CO)C2)c1=O
growth at 10 µM [1]: 140% | growth at 10 µM [2]: 109% | growth at 10 µM [3]: 107% | growth at 10 µM [4]: 132% | growth at 10 µM [5]: 105% | growth at 10 µM [6]: 117% | growth at 10 µM [7]: 150% | growth at 10 µM [8]: 103% | growth at 10 µM [9]: 73.5% | growth at 10 µM [10]: 116% | growth at 10 µM [11]: 104% | growth at 10 µM [12]: 120% | growth at 10 µM [13]: 91.6% | growth at 10 µM [14]: 111% | growth at 10 µM [15]: 134% | growth at 10 µM [16]: 116% | growth at 10 µM [17]: 108% | growth at 10 µM [18]: 100% | growth at 10 µM [19]: 103% | growth at 10 µM [20]: 120% | growth at 10 µM [21]: 112% | growth at 10 µM [22]: 107% | growth at 10 µM [23]: 129% | growth at 10 µM [24]: 101% | growth at 10 µM [25]: 114% | growth at 10 µM [26]: 146% | growth at 10 µM [27]: 110% | growth at 10 µM [28]: 108% | growth at 10 µM [29]: 105% | growth at 10 µM [30]: 107% | growth at 10 µM [31]: 102% | growth at 10 µM [32]: 108% | growth at 10 µM [33]: 117% | growth at 10 µM [34]: 106% | growth at 10 µM [35]: 111% | growth at 10 µM [36]: 107% | growth at 10 µM [37]: 112% | growth at 10 µM [38]: 108%
